Assay results reported in ChEMBL document CHEMBL3399955, “Synthesis of a new series of dithiocarbamates with effective human carbonic anhydrase inhibitory activity and antiglaucoma action” (Bioorg Med Chem, 2015).
pKi: −log10 of the molar value.

Assays:
Carbonic anhydrase 9 = Carbonic anhydrase 9 (Homo sapiens, UniProt Q16790); assay: Inhibition of human recombinant carbonic anhydrase 9 expressed in Escherichia coli pre-incubated for 15 mins by stopped-flow CO2 hydration assay
Oryctolagus cuniculus [1] = assay: Antiglaucoma activity in New Zealand albino rabbit model of glaucoma assessed as reduction in intraocular pressure dosed as 2% eye drops immediately after injection of hypertonic saline measured 1 hr post dose; format: functional
Oryctolagus cuniculus [2] = assay: Antiglaucoma activity in New Zealand albino rabbit model of glaucoma assessed as reduction in intraocular pressure dosed as 2% eye drops immediately after injection of hypertonic saline measured 2 hrs post dose; format: functional
Homo sapiens [3] = species: Homo sapiens; assay: Reduction in intraocular pressure in glaucoma patient; format: functional, Eye
Homo sapiens [4] = species: Homo sapiens; assay: Reduction in intraocular pressure in patient with open-angle glaucoma; format: functional, Eye

SMILES	pKi (Carbonic anhydrase 9)	also measured
S=C(S)N1CCCCC1	9.04	
O=C(O)[C@@H]1CCCN(C(=S)S)C1	7.38	
S=C(S)N[C@H]1CN2CCC1CC2	7.14	
O=C(O)[C@H]1CCCN(C(=S)S)C1	7.06	
O=C(O)C1CCN(C(=S)S)CC1	7.11	
S=C(S)NC1CN2CCC1CC2 (centres undefined)	7.03	
CC1COCCN1C(=S)S (centres undefined)	7.26	
CCN[C@H]1C[C@H](C)S(=O)(=O)c2sc(S(N)(=O)=O)cc21 [DORZOLAMIDE]		Activity (Oryctolagus cuniculus [1]): 4 mmHg; Activity (Oryctolagus cuniculus [2]): 3 mmHg; Activity (Homo sapiens [3]): 4 mmHg
CC(=O)Nc1nnc(S(N)(=O)=O)s1 [ACETAZOLAMIDE]		inhibition (INH) (Homo sapiens [4]): 25%
O=C(CN1CCN(C(=S)S)CC1)NC1CCCCC1	7.10	
O=C(O)C1CCCN(C(=S)S)C1 (centres undefined)	7.17	
S=C(S)N[C@@H]1CN2CCC1CC2	7.08	

Second part, led by results:

pKi (Carbonic anhydrase 9)	SMILES	also measured
7.60	S=C(S)NCCc1ccccc1	
9.04	NS(=O)(=O)c1ccc(CCNC(=S)S)cc1	
8.02	CC(=O)NC1CCCN(C(=S)S)C1 (centres undefined)	
9.01	OCCCCNC(=S)S	
9.04	OCCCNC(=S)S	
8.59	OCCCCCNC(=S)S	
8.17	O=C(O)C1COCCN1C(=S)S (centres undefined)	
7.14	O=C(O)C1CCCCN1C(=S)S (centres undefined)	
8.12	OC1CCCN(C(=S)S)C1 (centres undefined)	
7.42	CN(C)CCNC(=S)S	
